According to PubChem BioAssay (NCI):
“And” between values parts separate entries of the source, which are not always exact repeats. Equal entries are not always repeated.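 Assay format: 96-well plates, 48-hour exposure. Here, GI50 denotes the concentration required for 50% inhibition of growth. TGI: concentration producing complete growth inhibition.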

System: MDA-MB-468 breast
Assay: NCI tumour cell line growth inhibition, 48 h

SMILES | GI50 | TGI
COc1cnc2c(c1)C(=O)c1c-2n(CCCN2CCCC2)c(=O)c2cc([N+](=O)[O-])ccc12 | 0.0271 µM | 1.03 µM
Cn1ncc(Cl)c1-c1cc(C(=O)N[C@H](CN)Cc2cccc(F)c2)sc1Cl | 0.0387 µM and 0.092 µM | 0.582 µM and 1.39 µM
CCCc1nn(C)c2c(=O)[nH]c(-c3cc(S(=O)(=O)N4CCN(C)CC4)ccc3OCC)nc12 | 35 µM | > 100 µM
COC[C@H](NC(=O)c1cnc(C)s1)C(=O)N[C@@H](COC)C(=O)N[C@@H](Cc1ccccc1)C(=O)[C@@]1(C)CO1 | 14.8 µM | 38.1 µM
O=S(=O)(N=C1C(Cl)=C(Cl)C(=NS(=O)(=O)c2ccccc2)C(Cl)=C1Cl)c1ccccc1 | 15.1 µM | 35.9 µM
Cc1cc2c(F)c(Oc3ncnc(Nc4ccc(N5C[C@@H](C)N[C@@H](C)C5)cc4)c3C#N)cc(F)c2[nH]1 | 2.05 µM | 4.75 µM
COC(=O)/C=C1/SC(=Nc2cccc(Cl)c2)N(CCc2c[nH]c3ccc(O)cc23)C1=O | 1.99 µM | 4.4 µM
C[C@@H]1C[C@H](N)C[C@H](c2ccncc2NC(=O)c2ccc(F)c(-c3c(F)cccc3F)n2)C1 | 4.16 µM and 2.91 µM | 18.3 µM and > 10 µM
COc1cc(CCC[P+](c2ccccc2)(c2ccccc2)c2ccccc2)c(OC)c2c1OCO2 | 0.292 µM | 0.95 µM
COc1ccc(Nc2nc(NCCNc3ccnc4cc(Cl)ccc34)nc(N3CCOCC3)n2)cc1 | 1.62 µM | 4.03 µM
Nc1ncc(-c2ccc3ncnc(Nc4cccc(Cl)c4)c3c2)cn1 | 0.0565 µM | 0.378 µM
COc1ccc(-c2ncnc3c2ncn3CC#CCCl)cc1 | 2.37 µM | 7.29 µM
Cc1ccc2c(C(C[N+](=O)[O-])c3ccccc3)c(-c3ccccc3)[nH]c2c1 (centres undefined) | 12.7 µM | > 95 µM
COc1ccc(C(C)=C(c2ccc(OCCN3CCCCCC3)cc2)c2ccc(OCCN3CCCCCC3)cc2)cc1 | 0.806 µM | 3.05 µM
C(=N\Nc1ncc(-c2cc3cc4c(cc3o2)OCO4)s1)/c1ccco1 | 2.14 µM | 7.14 µM
CCOC(=O)C(=Cc1ccc(C#N)cc1)C(=O)OCC | 1.98 µM | 3.84 µM
COc1cc(-c2nn(-c3cccc(NC(=O)Nc4ccc(Cl)c(C(F)(F)F)c4)c3)cc2-c2ccncc2)ccc1Cl | 0.833 µM | 4.42 µM
CN1C(=O)CCC(N2C(=O)c3cccc(NCCOCCOCCNC(=O)c4cc5c(o4)C(=O)c4ccccc4C5=O)c3C2=O)C1=O (centres undefined) | 1.76 µM | 5.04 µM
CC1(C)N=C(N)N=C(N)N1c1ccc(CNC(=O)Nc2ccc(S(=O)(=O)F)c(Cl)c2)c(Cl)c1 | 0.689 µM | > 100 µM

SMILES | GI50 | TGI
O=C1c2c(c(=O)[nH]c3ccccc23)[C@H](c2ccccc2)[C@@H]2CCCN12 | 2.92 µM | 14.3 µM
Cc1ccc(CNc2ccc3nc(CCC4CCCCC4)[nH]c3c2)cc1 | 1.52 µM | 3.35 µM
Cc1c(CN2CCN(C(=O)[C@H](C)O)CC2)sc2c(N3CCOCC3)nc(-c3cnc(N)nc3)nc12 | 0.124 µM and 0.0793 µM | 1.14 µM and 0.456 µM
Fc1cccc(COc2ccc(Nc3ncnc4onc(-c5ccccc5)c34)cc2)c1 | 0.116 µM | 2.16 µM
C=C(C)[C@@H]1CC[C@]2(CO)CC[C@]3(C)[C@H](CC[C@@H]4[C@@]5(C)CCCNC(C)(C)[C@@H]5CC[C@]43C)[C@@H]12 | 1.66 µM | 3.38 µM
CC(=O)O.CN1[CH-]N(Cc2ccc(C#N)cc2)c2ccccc21.[Ag+] | 12.8 µM | 28.5 µM
CCN1CCN(CCNc2nccc(-c3c(-c4ccc(F)c(O)c4)nc4occn34)n2)S1(=O)=O | 4.53 µM | > 100 µM
NC(=S)N/N=C/c1ccc(OC(=O)COc2cc(Cl)c(Cl)cc2Cl)cn1 | 2.41 µM | 8.71 µM
CC1=C([Te]c2ccccc2)C(=O)c2ccccc2C1=O | 0.442 µM | 2.12 µM
COc1ccc2c(c1)c(-c1nc(-c3cn(C)c4ccncc34)cs1)cn2C | 1.62 µM | 3.2 µM
COc1ccc(Br)cc1NC(=O)Nc1cccc2c1ccn2Cc1ccnc(N)c1 | 2.85 µM and 4.54 µM | 12 µM and > 10 µM
Cc1c(Cn2c(C)nc3c(C(=O)O)cc(N4CCOCC4)cc32)cccc1C(F)(F)F | 26.7 µM | > 100 µM
CCC(CC)n1cnc2c(-c3cnc(N)cn3)nc(N3CC4CCC(C3)O4)nc21 | 0.189 µM | 2.81 µM
COc1cc2nc(N3CCCN(C)CC3)nc(NC3CCN(Cc4ccccc4)CC3)c2cc1OC | 1.5 µM | 3.19 µM
COc1cc2nc(Nc3cccc(Cl)c3)nc(N)c2cc1OC | 4.37 µM | 17.3 µM
CC1COc2c(N3CCN(C)CC3)c(F)cc3c(=O)c(C(=O)N/N=C/c4cc[nH]c4)cn1c23 (centres undefined) | 0.412 µM | 1.73 µM
CCOC(=O)c1[nH]c2cc(Cl)ccc2c1[C@@H](C(=O)NC(C)(C)C)N(CC)C(=O)CCCCC#Cc1cccc2c1CN(C1CCC(=O)NC1=O)C2=O (some centres undefined) | < 0.01 µM | < 0.0142 µM
CN(C)c1ccc(/C=N/NC(N)=S)nc1 | 2.21 µM | 8.41 µM
